Data: patent US4117142A, “Disubstituted triphenylmethylmidazoles for treating mycotic infections” (Bayer Aktiengesellschaft, priority 1972, dated 1978)
≈ marks a conversion by molar mass, not a printed value.

Columns and labels:
Candida Albicans [1] = assay: Series dilution test in vitro, minimum inhibitory concentration, Candida albicans; assay type: cell-based; conditions: 28° C, 24 to 96 hours
Method: (§1) Determination of the antimycotic spectrum of activity in vitro by the series dilution test.
(§2) The nutrient media used were Sabouraud's milieu d'epreuve for dermatophyties and molds and meat broth-glucose bouillon for blastomyces and biphase fungi.
(§3) The incubation temperature was 28° C and the incubation time was 24 to 96 hours.

[2] = tested on: Trichophyton mentagrophytes; assay: Series dilution test in vitro, minimum inhibitory concentration, Trichophyton mentagrophytes; assay type: cell-based; conditions: 28° C, 24 to 96 hours
Method: as §1, §2, §3

Aspergillus niger = assay: Series dilution test in vitro, minimum inhibitory concentration, Aspergillus niger; assay type: cell-based; conditions: 28° C, 24 to 96 hours
Method: as §1, §2, §3

Candida albicans [3] = assay: Candidosis in mice, oral treatment; assay type: in vivo, Mice of the type SPF-C1; conditions: orally 50, 75, 100 and 150 mg/kg, one hour before and 7 hours after infection; untreated control ~5% survival
Method: Description of the experiment:
Mice of the type SPF-C1 were infected intravenously with 1-2 × 10^6 logarithmically-growing Candida cells suspended in physiological sodium chloride solution.
One hour before, and 7 hours after, the infection the animals are treated orally with 50, 75, 100 and 150 mg/kg of body weight of the preparations.
Untreated animals died of the infection 3 to 6 days after infection. The survival rate on the 6th day after infection was ~ 5% in untreated control animals.

| SMILES | MIC (Candida Albicans [1]; n.s. = no added serum) | MIC ([2]; n.s. = no added serum) | MIC ([2]; w.s. = with 30% serum added) | MIC (Aspergillus niger; n.s. = no added serum) | MIC (Aspergillus niger; w.s. = with 30% serum added) | Action on candidosis in Mice (survival on the 6th day after infection) (Candida albicans [3]) | MIC (Candida Albicans [1]; w.s. = with 30% serum added) |
| --- | --- | --- | --- | --- | --- | --- | --- |
| Cc1cccc(C(c2ccccc2)(c2ccccc2)n2ccnc2)c1C [Example 1, 1-(2,3-dimethylphenyl-diphenyl)-methyl-imidazole] | 1 µg/mL (≈ 2.95 µM) | < 1 µg/mL | 4 µg/mL (≈ 11.8 µM) | 4 µg/mL (≈ 11.8 µM) | 40 µg/mL (≈ 118 µM) | +++++ (very good action = >90% survival on the 6th day after infection) | – |
| Cc1ccc(C(c2ccccc2)(c2ccccc2)n2ccnc2)c(C)c1 [Example 2, 1-(2,4-Dimethylphenyl-diphenyl)-methyl-imidazole] | – | – | – | – | – | +++++ (very good action = >90% survival on the 6th day after infection) | – |
| Cc1ccc(C)c(C(c2ccccc2)(c2ccccc2)n2ccnc2)c1 [Example 3, 1-(2,5-Dimethylphenyl-diphenyl)-methyl-imidazole] | 1 µg/mL (≈ 2.95 µM) | < 1 µg/mL | 40 µg/mL (≈ 118 µM) | – | – | ++++ (good action = >80% survival on the 6th day after infection) | – |
| Cc1cc(Cl)ccc1C(c1ccccc1)(c1ccccc1)n1ccnc1 [Example 4, 1-(2-Methyl-4-chlorophenyl-diphenyl)-methyl-imidazole] | 1 µg/mL (≈ 2.79 µM) | < 1 µg/mL | 10 µg/mL (≈ 27.9 µM) | – | – | +++++ (very good action = >90% survival on the 6th day after infection) | 40 µg/mL (≈ 111 µM) |
| Clc1cccc(C(c2ccccc2)(c2ccccc2)n2ccnc2)c1Cl [Example 6, 1-(2,3-Dichlorophenyl-diphenyl)-methyl-imidazole] | – | – | – | – | – | +++++ (very good action = >90% survival on the 6th day after infection) | – |
| Clc1cccc(Cl)c1C(c1ccccc1)(c1ccccc1)n1ccnc1 [Example 7, 1-(2,6-Dichlorophenyl-diphenyl)-methyl-imidazole] | 1 µg/mL (≈ 2.64 µM) | < 1 µg/mL | 4 µg/mL (≈ 10.5 µM) | – | – | +++++ (very good action = >90% survival on the 6th day after infection) | – |
| Cc1ccccc1C(c1ccccc1)(c1ccccc1C)n1ccnc1 [Example 8, 1-(2-Methylphenyl-2'-methylphenyl-phenyl)-methyl-imidazole] | 1 µg/mL (≈ 2.95 µM) | < 1 µg/mL | 10 µg/mL (≈ 29.5 µM) | – | – | +++++ (very good action = >90% survival on the 6th day after infection) | – |
| Clc1ccccc1C(c1ccccc1)(c1ccccc1Cl)n1ccnc1 [Example 9, 1-(2-Chlorophenyl-2'-chlorophenyl-phenyl)-methyl-imidazole] | 1 µg/mL (≈ 2.64 µM) | < 1 µg/mL | 4 µg/mL (≈ 10.5 µM) | – | 10 µg/mL (≈ 26.4 µM) | ++++ (good action = >80% survival on the 6th day after infection) | – |
